# Experiments:
# [1] = test system: Pyrenophora graminea; test: inhibition zone test, treated barley seeds on agar containing the fungus; assay type: cell-based; conditions: seed dressing, evaluated one week after placing on agar
# Experimental: (§1) The efficacy against seed-borne diseases can be illustrated by the inhibition zone test: single seeds treated with a seed dressing formulation comprising the compound to be tested e.g. with the seed dressing formulation according to Example 2 (hereinafter described) are placed on agar containing the seed-borne fungus. […] The size of the inhibition zone is evaluated one week after the seed has been placed on the agar. The activity is expressed as the concentration (in g per 100 kg seed) resulting in 90 % or more growth inhibition of the fungal mycelium.
# [2] = test system: Gerlachia nivalis; test: inhibition zone test, treated wheat seeds on agar containing the fungus; assay type: cell-based; conditions: seed dressing, evaluated one week after placing on agar
# Experimental: as §1
# [3] = test system: Pseudocercosporella herpotrichoides; conditions: causal agent of eyespot of cereals; cited from earlier work
# [4] = test system: Cochliobulus sativus; test: inhibition zone test, treated barley seeds on agar containing the fungus; assay type: cell-based; conditions: seed dressing, evaluated one week after placing on agar
# Experimental: as §1
# [5] = test system: Pyrenophora teres; test: as above; assay type: cell-based; conditions: seed dressing, evaluated one week after placing on agar
# Experimental: as §1
# [6] = test system: Septoria nodorum; test: inhibition zone test, treated wheat seeds on agar containing the fungus; assay type: cell-based; conditions: seed dressing, evaluated one week after placing on agar
# Experimental: as §1
# [7] = test system: Fusarium culmorum; test: as above; assay type: cell-based; conditions: seed dressing, evaluated one week after placing on agar
# Experimental: as §1
# [8] = test system: Pyrenophora graminea; test: Indoor pot test, spring barley seed dressing; assay type: in vivo; conditions: dosage 8 g a.i./100kg seed, growth chamber 10°C, visual evaluation 60 days after dressing and sowing
# Experimental: (§2) Spring barley seed naturally infested by Pyrenophora graminea are treated with a seed dressing formulation according to Example 1 and sown in pots filled with a substrate equivalent to a sandy loam in a growth chamber at 10°C with 14-17 hours daylight. The determination of the fungal control involves a visual evaluation 60 days after said dressing and sowing.
# [9] = test system: Pyrenophora graminea; test: Outdoor pot test, spring barley seed dressing; assay type: in vivo; conditions: dosage 8 g a.i./100kg seed
# Experimental: as §2
# (§3) Analogous tests are run outdoors under naturally occurring wheather conditions with spring barley infected by Pyrenophora graminea and Ustilago nuda. […]
# [10] = test system: Ustilago nuda; test: Outdoor pot test, spring barley seed dressing; assay type: in vivo; conditions: dosage 8 g a.i./100kg seed
# Experimental: as §2, §3
Compound,Concentration (g/100 kg Seed) providing ≧90% control [1] [g/100 kg Seed],Concentration (g/100 kg Seed) providing ≧90% control [2] [g/100 kg Seed],fungicidal activity in in-vitro tests [3],Concentration (g/100 kg Seed) providing ≧90% control [4] [g/100 kg Seed],Concentration (g/100 kg Seed) providing ≧90% control [5] [g/100 kg Seed],Concentration (g/100 kg Seed) providing ≧90% control [6] [g/100 kg Seed],Concentration (g/100 kg Seed) providing ≧90% control [7] [g/100 kg Seed],% Control indoors P. gram. [8],% Control outdoors P. gram. [9] [%],% Control outdoors U. nuda [10] [%]
"CN(C/C=C/C#CC(C)(C)C)Cc1cccc2ccccc12 [CH₃, terbinafine]",<5,<5,fungicidal activity,–,–,–,–,–,–,–
"C=CCOC(Cn1ccnc1)c1ccc(Cl)cc1Cl (stereo not shown) [Standard A, Imazalil]",8,–,–,4,8,8,–,–,–,–
"CCCC(C)(C)C#CC=CCN(C)Cc1cccc2ccccc12 [nC₃H₇, N-(6,6-Dimethyl-2-nonen-4-inyl)-N-Methyl-1-naphthylmethylamine]",2,2,–,2,4,2,8,80-90%,80,100
CN(C/C=C/c1ccccc1)Cc1cccc2ccccc12 [naftifine],–,–,fungicidal activity,–,–,–,–,–,–,–
Guazatine,–,8,–,–,–,–,4,–,–,–

# Reference: patent publication EP0363326A2, “Fungicidal amines” (SANDOZ AG, priority 1988, dated 1990)
